Experimental data from patent publication US7619059B2, “Bimolecular optical probes” (Life Technologies Corporation, priority 2003, dated 2009).

Assays:
GSK3α = target: T1, GSK3α (Homo sapiens, UniProt P49840); assay: Z′-Lyte TR-FRET kinase assay, GSK3α; format: biochemical; conditions: 400 nM substrate, 0.03 μg/ml GSK3α; read-out: ATP EC50 (ATP titration) GSK3α
T1 construct: purchased PV3322/30387A

GSK3β = target: T2, GSK3β (Homo sapiens, UniProt P49841); assay: Z′-Lyte TR-FRET kinase assay, GSK3β; format: biochemical; conditions: 400 nM substrate, 0.25 μg/ml GSK3β; read-out: ATP EC50 (ATP titration) GSK3β
T2 construct: purchased PV3270/29135A
T2 sequence (P49841 whole entry): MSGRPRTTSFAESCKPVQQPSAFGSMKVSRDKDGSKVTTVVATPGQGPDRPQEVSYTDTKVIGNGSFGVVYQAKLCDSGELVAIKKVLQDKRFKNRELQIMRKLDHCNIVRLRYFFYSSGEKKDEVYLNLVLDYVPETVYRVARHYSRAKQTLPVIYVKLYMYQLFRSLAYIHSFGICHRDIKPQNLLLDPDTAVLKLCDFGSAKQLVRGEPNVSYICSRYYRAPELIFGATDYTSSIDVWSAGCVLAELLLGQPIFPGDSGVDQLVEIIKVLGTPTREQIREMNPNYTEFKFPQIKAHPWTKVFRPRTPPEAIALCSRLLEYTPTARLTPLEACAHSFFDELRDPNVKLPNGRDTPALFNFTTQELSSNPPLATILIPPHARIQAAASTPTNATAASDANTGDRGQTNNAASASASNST

T1 sequence (P49840 whole entry): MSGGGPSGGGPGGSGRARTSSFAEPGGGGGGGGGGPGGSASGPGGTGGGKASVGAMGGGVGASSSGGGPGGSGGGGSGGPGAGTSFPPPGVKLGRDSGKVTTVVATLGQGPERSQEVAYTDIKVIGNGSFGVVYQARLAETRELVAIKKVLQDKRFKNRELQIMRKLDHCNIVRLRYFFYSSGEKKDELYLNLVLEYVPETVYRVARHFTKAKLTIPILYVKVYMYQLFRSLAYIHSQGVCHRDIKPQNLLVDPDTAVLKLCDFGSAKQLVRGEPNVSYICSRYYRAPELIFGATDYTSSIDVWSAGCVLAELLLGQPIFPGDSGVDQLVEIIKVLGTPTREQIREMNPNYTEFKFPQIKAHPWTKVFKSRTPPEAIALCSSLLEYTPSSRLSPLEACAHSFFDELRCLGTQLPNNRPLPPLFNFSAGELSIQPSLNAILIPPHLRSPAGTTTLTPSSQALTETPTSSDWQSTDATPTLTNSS

EC50 (GSK3α): ~10 µM | EC50 (GSK3β): ~10 µM
Structure (SMILES): Nc1ncnc2c1ncn2[C@@H]1O[C@H](COP(=O)(O)OP(=O)(O)OP(=O)(O)O)[C@@H](O)[C@H]1O [ATP]
